Experimental data from article PMC5078040 (Oncotarget, 2016).

Columns and labels:
MEC-1 (CLL) = experiment: Colony formation assay; type: cell-based; settings: Homo sapiens, MEC1, 360 h; MEC-1, 15 days; read-out: anti-colony formation EC50
Method: (§1) In brief, 1 mL of 3 % agarose combined with 1 mL HT, REC-1, MEC-1 and MOLM-13 growth media was used as the bottom agar in a 6-well plate. […] Cells were maintained in a humidified 5% CO2 incubator at 37°C for 15 days. On the 15th day, the numbers of colonies in each well were counted and each measurement was performed in triplicate.

HT (B-NHL) = experiment: Colony formation assay; type: cell-based; settings: Homo sapiens, HT15, 360 h, 15 days, read-out: anti-colony formation EC50
Method: as §1

MOLM13 (AML) = experiment: Colony formation assay; type: cell-based; settings: Homo sapiens, MOLM-13, 360 h; MOLM13, 15 days; read-out: anti-colony formation EC50
Method: as §1

TAOK3 = biological target: T1, TAOK3 (Homo sapiens, UniProt Q9H2K8); experiment: KinomeScan; type: binding; settings: 1uM
T1 construct: purchased DiscoveRx KINOMEscan

PI3Kβ = biological target: T2, PI3Kβ (Mus musculus, UniProt Q8BTI9); experiment: PI3Ks isoform in cell EC50 assay (AKT phosphorylation, Western Blotting); type: cell-based; settings: NIH-3T3, 5μM LPA, read-out: cellular EC50 PI3K Beta
T2 construct: endogenous in cells; host or cells: NIH-3T3

CLL patient primary cell = experiment: Anti-proliferative efficacy against patient primary cells; type: cell-based; settings: Homo sapiens
Method: Peripheral blood mononuclear cells (PBMCs) from individuals with CLL were isolated by density centrifugation through Ficoll and frozen for each subject. Those subjects with low white counts whose CLL cell purity was expected to be < 85% underwent B cell isolation using RosetteSep. The protocol was approved by the Dana-Farber Harvard Cancer Center Institutional Review Board and all subjects signed written informed consent prior to participation.
(§2) Cells were grown in 96-well culture plates (3000-4000/well). […] Cell proliferation was determined after treatment with compounds for 72 hours. Cell viability was measured using the CellTiter–Glo Assay Kit (Promega, USA), according to the manufacturer's instructions, and luminescence was measured in a multi-label reader (Envision, PerkinElmer, USA). Data were normalized to control groups (DMSO) and represented by the mean of three independent measurements with standard error <20%. GI50 values were calculated using Prism 5.0 (GraphPad Software, San Diego, CA).

PKN1 = biological target: T3, PKN1 (Homo sapiens, UniProt Q16512); experiment: KinomeScan; type: binding; settings: 1uM
T3 construct: purchased DiscoveRx KINOMEscan

ADCK3 = biological target: T4, ADCK3 (Homo sapiens, UniProt Q8NI60); experiment: KinomeScan; type: binding; settings: 1uM
T4 construct: purchased DiscoveRx KINOMEscan

RIOK1 = biological target: T5, RIOK1 (Homo sapiens, UniProt Q9BRS2); experiment: KinomeScan; type: binding; settings: 1uM
T5 construct: purchased DiscoveRx KINOMEscan

ERK3 = biological target: T6, ERK3 (Homo sapiens, UniProt Q16659); experiment: KinomeScan; type: binding; settings: 1uM
T6 construct: purchased DiscoveRx KINOMEscan

YSK4 = biological target: T7, YSK4 (Homo sapiens, UniProt Q56UN5); experiment: KinomeScan; type: binding; settings: 1uM
T7 construct: purchased DiscoveRx KINOMEscan

MEK2 = biological target: T8, MEK2 (Homo sapiens, UniProt P36507); experiment: KinomeScan; type: binding; settings: 1uM
T8 construct: purchased DiscoveRx KINOMEscan

RIOK3 = biological target: T9, RIOK3 (Homo sapiens, UniProt O14730); experiment: KinomeScan; type: binding; settings: 1uM
T9 construct: purchased DiscoveRx KINOMEscan

GAK = biological target: T10, GAK (Homo sapiens, UniProt O14976); experiment: KinomeScan; type: binding; settings: 1uM
T10 construct: purchased DiscoveRx KINOMEscan

MYO3A = biological target: T11, MYO3A (Homo sapiens, UniProt Q8NEV4); experiment: KinomeScan; type: binding; settings: 1uM
T11 construct: purchased DiscoveRx KINOMEscan

DYRK1B = biological target: T12, DYRK1B (Homo sapiens, UniProt Q9Y463); experiment: KinomeScan; type: binding; settings: 1uM
T12 construct: purchased DiscoveRx KINOMEscan

PAK4 = biological target: T13, PAK4 (Homo sapiens, UniProt O96013); experiment: KinomeScan; type: binding; settings: 1uM
T13 construct: purchased DiscoveRx KINOMEscan

LCK = biological target: T14, LCK (Homo sapiens, UniProt P06239); experiment: KinomeScan; type: binding; settings: 1uM
T14 construct: purchased DiscoveRx KINOMEscan

[1] = biological target: T15, JAK2(JH1domain-catalytic) (Homo sapiens, UniProt O60674); experiment: KinomeScan; type: binding; settings: 1uM
T15 construct: JAK2(JH1domain-catalytic); purchased DiscoveRx KINOMEscan

PIP5K1C = biological target: T16, PIP5K1C (Homo sapiens, UniProt O60331); experiment: KinomeScan; type: binding; settings: 1uM
T16 construct: purchased DiscoveRx KINOMEscan

PLK3 = biological target: T17, PLK3 (Homo sapiens, UniProt Q9H4B4); experiment: KinomeScan; type: binding; settings: 1uM
T17 construct: purchased DiscoveRx KINOMEscan

CSNK2A2 = biological target: T18, CSNK2A2 (Homo sapiens, UniProt P19784); experiment: KinomeScan; type: binding; settings: 1uM
T18 construct: purchased DiscoveRx KINOMEscan

NEK5 = biological target: T19, NEK5 (Homo sapiens, UniProt Q6P3R8); experiment: KinomeScan; type: binding; settings: 1uM
T19 construct: purchased DiscoveRx KINOMEscan

ERBB4 = biological target: T20, ERBB4 (Homo sapiens, UniProt Q15303); experiment: KinomeScan; type: binding; settings: 1uM
T20 construct: purchased DiscoveRx KINOMEscan

TRKC = biological target: T21, TRKC (Homo sapiens, UniProt Q16288); experiment: KinomeScan; type: binding; settings: 1uM
T21 construct: purchased DiscoveRx KINOMEscan

MARK3 = biological target: T22, MARK3 (Homo sapiens, UniProt P27448); experiment: KinomeScan; type: binding; settings: 1uM
T22 construct: purchased DiscoveRx KINOMEscan

CHEK1 = biological target: T23, CHEK1 (Homo sapiens, UniProt O14757); experiment: KinomeScan; type: binding; settings: 1uM
T23 construct: purchased DiscoveRx KINOMEscan

CDK5 = biological target: T24, CDK5 (Homo sapiens, UniProt Q00535); experiment: KinomeScan; type: binding; settings: 1uM
T24 construct: purchased DiscoveRx KINOMEscan

HIPK1 = biological target: T25, HIPK1 (Homo sapiens, UniProt Q86Z02); experiment: KinomeScan; type: binding; settings: 1uM
T25 construct: purchased DiscoveRx KINOMEscan

ASK2 = biological target: T26, ASK2 (Homo sapiens, UniProt O95382); experiment: KinomeScan; type: binding; settings: 1uM
T26 construct: purchased DiscoveRx KINOMEscan

PIK3C2B = biological target: T27, PIK3C2B (Homo sapiens, UniProt O00750); experiment: ADP-glo biochemical assay
T27 construct: purchased Invitrogen
Method: The reaction in each tube was started immediately by adding ATP and kept going for an hour under 37°C. After the tube cooled for 5 minutes at room temperature, 5 μL solvent reactions were carried out in a 384-well plate. Then 5 μL of ADP-Glo™ reagent was added into each well to stop the reaction and consume the remaining ADP within 40 minutes. At the end, 10 μL of kinase detection reagent was added into the well and incubated for 30 minutes to produce a luminescence signal. Luminescence signal was measured with an automated plate reader (Perkin-Elmer Envision) and each measurement was performed in triplicate.

NEK1 = biological target: T28, NEK1 (Homo sapiens, UniProt Q96PY6); experiment: KinomeScan; type: binding; settings: 1uM
T28 construct: purchased DiscoveRx KINOMEscan

[2] = system: panel of cancer cell lines derived from B-cell malignancies; experiment: Anti-proliferative assay (panel summary); type: cell-based; settings: Homo sapiens; most of the cell lines including AML, B-cell lymphoma and multiple myeloma cell lines
Method: as §2

T13 sequence (O96013 whole entry): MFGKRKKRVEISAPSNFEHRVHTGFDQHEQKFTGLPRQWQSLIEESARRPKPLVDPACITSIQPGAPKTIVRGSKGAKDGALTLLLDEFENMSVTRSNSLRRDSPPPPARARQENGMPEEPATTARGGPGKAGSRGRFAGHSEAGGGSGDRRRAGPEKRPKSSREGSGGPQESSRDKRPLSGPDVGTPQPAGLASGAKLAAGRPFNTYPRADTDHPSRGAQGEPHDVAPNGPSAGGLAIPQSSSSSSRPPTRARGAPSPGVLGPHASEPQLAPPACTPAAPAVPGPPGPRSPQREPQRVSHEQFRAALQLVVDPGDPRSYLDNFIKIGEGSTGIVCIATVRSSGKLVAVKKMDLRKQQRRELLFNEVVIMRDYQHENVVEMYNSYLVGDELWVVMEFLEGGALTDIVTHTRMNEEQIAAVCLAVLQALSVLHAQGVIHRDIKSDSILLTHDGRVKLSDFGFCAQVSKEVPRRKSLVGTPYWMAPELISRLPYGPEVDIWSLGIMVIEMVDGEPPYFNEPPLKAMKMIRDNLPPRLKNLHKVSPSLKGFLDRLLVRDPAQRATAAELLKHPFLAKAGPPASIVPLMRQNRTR
T10 sequence (O14976 whole entry): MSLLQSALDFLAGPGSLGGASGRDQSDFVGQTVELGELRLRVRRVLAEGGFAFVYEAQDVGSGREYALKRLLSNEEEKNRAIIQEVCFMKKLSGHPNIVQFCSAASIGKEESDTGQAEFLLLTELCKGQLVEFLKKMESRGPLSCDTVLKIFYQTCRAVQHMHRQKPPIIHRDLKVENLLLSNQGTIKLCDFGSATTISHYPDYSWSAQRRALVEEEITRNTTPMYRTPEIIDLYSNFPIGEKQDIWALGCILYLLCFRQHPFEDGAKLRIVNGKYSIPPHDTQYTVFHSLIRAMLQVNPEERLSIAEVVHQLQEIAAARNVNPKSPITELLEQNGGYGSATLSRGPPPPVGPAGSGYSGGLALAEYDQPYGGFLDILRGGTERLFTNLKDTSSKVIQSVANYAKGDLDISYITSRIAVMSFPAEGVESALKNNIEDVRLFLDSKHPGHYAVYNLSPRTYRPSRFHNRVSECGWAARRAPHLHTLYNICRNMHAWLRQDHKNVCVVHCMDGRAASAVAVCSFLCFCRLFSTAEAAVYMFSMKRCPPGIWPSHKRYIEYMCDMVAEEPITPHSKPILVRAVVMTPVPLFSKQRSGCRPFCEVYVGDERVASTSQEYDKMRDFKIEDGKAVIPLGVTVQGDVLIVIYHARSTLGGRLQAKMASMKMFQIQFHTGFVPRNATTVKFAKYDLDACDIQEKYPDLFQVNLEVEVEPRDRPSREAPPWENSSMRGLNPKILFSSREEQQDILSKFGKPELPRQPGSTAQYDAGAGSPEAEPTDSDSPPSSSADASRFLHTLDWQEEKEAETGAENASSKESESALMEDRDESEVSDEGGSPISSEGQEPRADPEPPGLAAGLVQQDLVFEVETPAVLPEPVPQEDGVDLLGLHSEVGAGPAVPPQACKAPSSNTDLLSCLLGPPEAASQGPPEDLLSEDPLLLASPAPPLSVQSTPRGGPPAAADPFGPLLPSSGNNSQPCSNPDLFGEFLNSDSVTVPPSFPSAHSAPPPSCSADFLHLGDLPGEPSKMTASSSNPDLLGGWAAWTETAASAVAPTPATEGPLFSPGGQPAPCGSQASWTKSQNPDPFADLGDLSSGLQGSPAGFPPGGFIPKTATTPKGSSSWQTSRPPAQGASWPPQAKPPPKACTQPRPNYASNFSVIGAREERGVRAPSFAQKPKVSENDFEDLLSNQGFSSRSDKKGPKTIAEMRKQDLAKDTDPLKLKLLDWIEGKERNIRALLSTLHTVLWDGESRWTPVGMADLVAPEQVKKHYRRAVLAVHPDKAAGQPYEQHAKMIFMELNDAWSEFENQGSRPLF
T1 sequence (Q9H2K8 whole entry): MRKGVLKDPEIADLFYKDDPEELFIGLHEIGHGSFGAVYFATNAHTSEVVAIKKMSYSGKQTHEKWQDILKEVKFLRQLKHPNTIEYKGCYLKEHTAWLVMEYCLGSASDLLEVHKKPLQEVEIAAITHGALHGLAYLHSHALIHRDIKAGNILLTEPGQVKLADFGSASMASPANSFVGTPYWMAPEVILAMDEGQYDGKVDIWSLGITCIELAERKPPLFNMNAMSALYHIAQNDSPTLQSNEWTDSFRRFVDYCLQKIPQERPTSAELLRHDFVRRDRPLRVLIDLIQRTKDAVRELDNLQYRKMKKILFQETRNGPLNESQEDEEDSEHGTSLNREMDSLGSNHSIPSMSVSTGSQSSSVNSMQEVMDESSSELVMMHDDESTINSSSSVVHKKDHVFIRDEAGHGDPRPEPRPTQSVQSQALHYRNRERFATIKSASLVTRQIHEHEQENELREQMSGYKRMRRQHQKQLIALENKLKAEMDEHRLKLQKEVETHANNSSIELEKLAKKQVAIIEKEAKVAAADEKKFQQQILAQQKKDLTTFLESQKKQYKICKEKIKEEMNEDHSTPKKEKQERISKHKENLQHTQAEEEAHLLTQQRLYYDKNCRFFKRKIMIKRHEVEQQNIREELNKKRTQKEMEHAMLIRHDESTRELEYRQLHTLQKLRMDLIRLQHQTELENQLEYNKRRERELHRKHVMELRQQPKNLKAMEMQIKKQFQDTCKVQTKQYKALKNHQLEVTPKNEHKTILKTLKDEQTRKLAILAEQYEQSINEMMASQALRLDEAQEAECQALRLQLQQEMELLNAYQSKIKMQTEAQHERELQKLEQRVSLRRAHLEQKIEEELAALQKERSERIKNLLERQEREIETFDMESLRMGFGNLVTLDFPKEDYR
T17 sequence (Q9H4B4 whole entry): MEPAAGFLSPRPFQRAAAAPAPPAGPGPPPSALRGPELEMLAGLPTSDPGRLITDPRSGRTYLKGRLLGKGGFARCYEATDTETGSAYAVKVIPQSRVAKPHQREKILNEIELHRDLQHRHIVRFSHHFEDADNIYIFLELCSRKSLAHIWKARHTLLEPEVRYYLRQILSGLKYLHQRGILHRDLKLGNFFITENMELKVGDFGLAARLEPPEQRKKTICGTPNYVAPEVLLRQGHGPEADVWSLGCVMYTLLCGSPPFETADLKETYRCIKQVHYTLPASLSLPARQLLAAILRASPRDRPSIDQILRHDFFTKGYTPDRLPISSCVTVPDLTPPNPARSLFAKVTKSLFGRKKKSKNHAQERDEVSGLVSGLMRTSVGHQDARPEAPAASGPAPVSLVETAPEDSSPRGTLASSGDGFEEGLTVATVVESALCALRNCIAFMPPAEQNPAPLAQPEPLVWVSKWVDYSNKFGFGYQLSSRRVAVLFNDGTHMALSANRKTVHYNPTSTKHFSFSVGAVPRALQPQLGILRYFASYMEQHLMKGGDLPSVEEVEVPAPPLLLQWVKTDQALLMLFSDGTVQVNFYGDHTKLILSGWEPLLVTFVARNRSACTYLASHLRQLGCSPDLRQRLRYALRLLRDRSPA
T18 sequence (P19784 whole entry): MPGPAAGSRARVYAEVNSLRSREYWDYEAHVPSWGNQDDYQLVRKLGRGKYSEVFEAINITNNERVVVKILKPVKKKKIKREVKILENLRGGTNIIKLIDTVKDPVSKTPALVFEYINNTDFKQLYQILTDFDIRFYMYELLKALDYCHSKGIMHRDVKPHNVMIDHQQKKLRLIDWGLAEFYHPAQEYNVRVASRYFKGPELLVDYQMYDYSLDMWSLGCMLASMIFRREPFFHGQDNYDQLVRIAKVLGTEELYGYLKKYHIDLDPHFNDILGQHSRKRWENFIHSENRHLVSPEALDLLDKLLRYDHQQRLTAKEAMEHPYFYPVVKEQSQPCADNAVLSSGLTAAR
T25 sequence (Q86Z02 whole entry): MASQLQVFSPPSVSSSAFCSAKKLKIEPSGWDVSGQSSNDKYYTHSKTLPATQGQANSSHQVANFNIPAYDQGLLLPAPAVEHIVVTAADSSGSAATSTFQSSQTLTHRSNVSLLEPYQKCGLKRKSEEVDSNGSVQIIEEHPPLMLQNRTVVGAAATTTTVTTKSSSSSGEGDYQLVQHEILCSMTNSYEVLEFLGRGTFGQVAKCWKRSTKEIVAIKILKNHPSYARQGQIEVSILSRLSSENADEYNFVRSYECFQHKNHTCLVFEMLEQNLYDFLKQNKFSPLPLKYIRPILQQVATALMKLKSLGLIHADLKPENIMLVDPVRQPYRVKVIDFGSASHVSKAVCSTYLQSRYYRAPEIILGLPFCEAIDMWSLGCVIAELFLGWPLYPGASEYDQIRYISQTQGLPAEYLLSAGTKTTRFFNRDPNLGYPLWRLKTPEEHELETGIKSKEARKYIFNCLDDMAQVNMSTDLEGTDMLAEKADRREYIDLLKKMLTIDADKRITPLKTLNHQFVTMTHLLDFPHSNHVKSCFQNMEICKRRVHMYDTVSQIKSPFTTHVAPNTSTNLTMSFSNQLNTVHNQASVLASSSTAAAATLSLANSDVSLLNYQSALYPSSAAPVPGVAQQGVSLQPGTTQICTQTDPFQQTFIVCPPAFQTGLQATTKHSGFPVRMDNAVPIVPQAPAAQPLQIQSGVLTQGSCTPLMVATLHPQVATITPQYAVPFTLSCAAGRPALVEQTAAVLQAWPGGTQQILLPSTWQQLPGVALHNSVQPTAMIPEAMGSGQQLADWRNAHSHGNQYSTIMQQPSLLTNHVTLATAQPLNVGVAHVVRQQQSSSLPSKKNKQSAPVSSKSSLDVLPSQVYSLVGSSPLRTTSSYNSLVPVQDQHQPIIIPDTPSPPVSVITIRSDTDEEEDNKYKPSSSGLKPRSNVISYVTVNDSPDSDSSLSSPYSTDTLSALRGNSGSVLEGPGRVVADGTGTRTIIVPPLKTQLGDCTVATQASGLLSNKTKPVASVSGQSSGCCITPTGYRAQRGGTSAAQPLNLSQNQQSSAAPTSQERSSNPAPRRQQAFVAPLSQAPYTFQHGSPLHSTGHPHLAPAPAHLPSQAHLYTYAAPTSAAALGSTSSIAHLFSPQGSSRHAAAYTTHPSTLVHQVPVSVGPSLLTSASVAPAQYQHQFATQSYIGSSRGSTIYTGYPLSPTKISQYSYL

Molecule Cc1nc(NC(=O)[C@@H](N)C(C)C)sc1-c1cnc(Cl)c(NS(=O)(=O)c2ccccc2)c1 [PI3KD-IN-015] has an EC50 (MEC-1 (CLL)) of 0.765 µM, an EC50 (HT (B-NHL)) of 0.374 µM and an EC50 (MOLM13 (AML)) of 0.215 µM. The “KinomeScan TAOK3” value (TAOK3) was 93, the EC50 (PI3Kβ) was greater than 3 µM and the GI50 (CLL patient primary cell; patient primary cell CLL16) was 7.8 µM. The GI50 (CLL patient primary cell; patient primary cell CLL18) was greater than 10 µM, the GI50 (CLL patient primary cell; patient primary cell CLL19) was 1.5 µM and the “KinomeScan PKN1” value (PKN1) was 100. The “KinomeScan ADCK3” value (ADCK3) was 100, the “KinomeScan RIOK1” value (RIOK1) was 94 and the “KinomeScan ERK3” value (ERK3) was 96. For the same molecule, the “KinomeScan YSK4” value (YSK4) was 100, the “KinomeScan MEK2” value (MEK2) was 94 and the “KinomeScan RIOK3” value (RIOK3) was 96. The “KinomeScan GAK” value (GAK) was 100, the “KinomeScan MYO3A” value (MYO3A) was 94 and the “KinomeScan DYRK1B” value (DYRK1B) was 100. The “KinomeScan PAK4” value (PAK4) was 100, the “KinomeScan LCK” value (LCK) was 100 and the “KinomeScan JAK2(JH1domain-catalytic)” value [1] was 96. The “KinomeScan PIP5K1C” value (PIP5K1C) was 72, the “KinomeScan PLK3” value (PLK3) was 76 and the “KinomeScan CSNK2A2” value (CSNK2A2) was 39. For the same molecule, the “KinomeScan NEK5” value (NEK5) was 100, the “KinomeScan ERBB4” value (ERBB4) was 98 and the “KinomeScan TRKC” value (TRKC) was 100. The “KinomeScan MARK3” value (MARK3) was 100, the “KinomeScan CHEK1” value (CHEK1) was 100 and the “KinomeScan CDK5” value (CDK5) was 100. The “KinomeScan HIPK1” value (HIPK1) was 96, the “KinomeScan ASK2” value (ASK2) was 84 and the IC50 (PIK3C2B) was greater than 10 µM. The “KinomeScan NEK1” value (NEK1) was 100 and the GI50 [2] was 1 to 10 µM.
